Experimental data reported in US6562873B2, “Compositions containing therapeutically active components having enhanced solubility” (Allergan, Inc., priority 2000, dated 2003).
Where two headings read alike, the source gives them in different places. Marks after values point to notes of the source that are not given here.

Assays:
[1] = for Solubility of Brimonidine tartrate (%): 15 days; for soluble Brimonidine tartrate: FIG. 1
Experimental: The pH-solubility profiles of Brimonidine tartrate in compositions (solutions) containing SECs and oxy-chloro components were determined. Particularly, the effects of sodium carboxymethylcellulose (CMC), an SEC, on the solubility of Brimonidine tartrate at various pH conditions were determined. The various concentrations of CMC tested with Brimonidine tartrate were 0%, 0.056%, 0.17%, 0.5%, 1.5% (w/v), Table III.
The samples tested also contained isotonic components, buffer components, and stabilized chlorine dioxide (Purite™), Table III. Sodium carboxymethyl-cellulose, sodium chloride, potassium chloride, calcium chloride dihydrate, and magnesium chloride hexahydrate were USP grade. Boric acid and sodium borate decahydrate were NF grade.
Each sample (1 through 5) was subjected to a range of pH's from about 7 to about 10. The vials containing the sample solutions were placed on a laboratory rotator and left for equilibration for fifteen days at room temperature (^˜21° C.). The sample solutions were filtered using a 25 mm diameter polysulfone cellulose acetate syringe type filter with 0.45 μm pore size. The filtered solutions were assayed for Brimonidine.
Conventional HPLC and detection techniques were used to detect and determine the concentrations of soluble Brimonidine tartrate. […] The solubility is plotted against pH for each CMC concentration. The experimental data points were fitted to a modified Henderson-Hasselbalch equation using a nonlinear least squares routine (Deltagraph version 4.0 DeltaPoint, Inc.), FIG. 1.

[2] = for Solubility: 23° C., 2 days stirring, theoretical concentration based on sample weight, all dissolved
Experimental: Table 1. It will be understood that concentrations of adrenergic agonists other than 0.5% may be used, so long as they have therapeutic activity. Likewise, the temperature may be varied, for example, solubility curves may be performed at 37° C. (98.6° F.). The formulation vehicle was prepared by first dissolving polyvinyl alcohol (PVA) in water. The PVA was added to approximately ⅓ of the required total amount of purified water with constant stirring. The slurry was stirred for 20-30 minutes and then heated to 80-95° C. with constant stirring. The mixture was removed from the heat source within 1 hour after having reached the temperature of 80-90° C. and stirred for an additional 10 minutes to ensure homogeneity (Part I). The other ingredients of the Ophthalmic Solution, except for Brimonidine tartrate, were dissolved in a separate container with an additional ⅓ of the required total amount of purified water (Part II). The PVA mixture (Part I) was then quantitatively transferred to Part II using several rinse volumes of purified water. The solution was adjusted to final volume with purified water without pH adjustment.
Brimonidine tartrate was weighed and transferred to a 10 mL test tube containing 5 mL of the formulation vehicle described above. The pH of each sample was then adjusted to a desired value using dilute sodium hydroxide and/or dilute hydrochloric acid. The samples were placed in a rack on a stir plate and stirred at high speed to achieve uniform mixing for 2 days; a partition was placed between the rack and the stir plate to prevent any heat diffusion from the stir plate to the samples.
At the end of two days of stirring, the pH value of each sample was measured, and then approximately 1 mL of each sample was placed in a micro centrifuge tube (polypropylene) and centrifuged at 4,000 rpm for 10 minutes. The supernatant was filtered through a 1 μm filter unit (Whatman, 13 mm, PTFE). The first 3-4 drops of the filtrate were discarded; the rest of the filtrate was received and diluted quantitatively with HPLC mobile phase. […] A control of […] Brimonidine tartrate was prepared in the formulation vehicle at pH 6.3-6.5 and assayed before (untreated) and after (treated) centrifugation and filtration. This was done to evaluate the potential loss of Brimonidine tartrate in these two steps of the sample preparation. To ensure reproducibility, the study was repeated on consecutive days.

## 5-bromo-6-(2-imidozolin-2-ylamino) quinoxaline [Brimonidine tartrate]
[1]; 0% CMC, pH 6.68, room temperature (~21° C.)
  Solubility of Brimonidine tartrate (%): 1.4256%
[1]; 0% CMC, pH 7.11, room temperature (~21° C.)
  Solubility of Brimonidine tartrate (%): 0.2064%
[1]; 0% CMC, pH 7.68, room temperature (~21° C.)
  Solubility of Brimonidine tartrate (%): 0.0786%
[1]; 0% CMC, pH 8.50, room temperature (~21° C.)
  Solubility of Brimonidine tartrate (%): 0.0286%
[1]; 0% CMC, pH 10.09, room temperature (~21° C.)
  Solubility of Brimonidine tartrate (%): 0.0218%
[1]; 0.056% CMC, pH 6.67, room temperature (~21° C.)
  Solubility of Brimonidine tartrate (%): 0.9302%
[1]; 0.056% CMC, pH 7.11, room temperature (~21° C.)
  Solubility of Brimonidine tartrate (%): 0.2828%
[1]; 0.056% CMC, pH 7.77, room temperature (~21° C.)
  Solubility of Brimonidine tartrate (%): 0.0721%
[1]; 0.056% CMC, pH 9.93, room temperature (~21° C.)
  Solubility of Brimonidine tartrate (%): 0.0234%
[1]; 0.17% CMC, pH 6.68, room temperature (~21° C.)
  Solubility of Brimonidine tartrate (%): 1.4200%
[1]; 0.17% CMC, pH 6.93, room temperature (~21° C.)
  Solubility of Brimonidine tartrate (%): 0.7302%
[1]; 0.17% CMC, pH 7.81, room temperature (~21° C.)
  Solubility of Brimonidine tartrate (%): 0.0735%
[1]; 0.17% CMC, pH 8.55, room temperature (~21° C.)
  Solubility of Brimonidine tartrate (%): 0.0328%
[1]; 0.17% CMC, pH 10.05, room temperature (~21° C.)
  Solubility of Brimonidine tartrate (%): 0.0241%
[1]; 0.5% CMC, pH 6.67, room temperature (~21° C.)
  Solubility of Brimonidine tartrate (%): 1.4464%
[1]; 0.5% CMC, pH 7.10, room temperature (~21° C.)
  Solubility of Brimonidine tartrate (%): 0.3693%
[1]; 0.5% CMC, pH 7.56, room temperature (~21° C.)
  Solubility of Brimonidine tartrate (%): 0.1451%
[1]; 0.5% CMC, pH 8.46, room temperature (~21° C.)
  Solubility of Brimonidine tartrate (%): 0.0313%
[1]; 0.5% CMC, pH 9.94, room temperature (~21° C.)
  Solubility of Brimonidine tartrate (%): 0.0250%
[1]; 1.5% CMC, pH 7.35, room temperature (~21° C.)
  Solubility of Brimonidine tartrate (%): 0.1904%
[1]; 1.5% CMC, pH 8.10, room temperature (~21° C.)
  Solubility of Brimonidine tartrate (%): 0.0498%
[1]; 1.5% CMC, pH 8.67, room temperature (~21° C.)
  Solubility of Brimonidine tartrate (%): 0.0311%
[1]; 1.5% CMC, pH 10.11, room temperature (~21° C.)
  Solubility of Brimonidine tartrate (%): 0.0222%
[1]; FIG. 1, 0-1.5% CMC
  effect of CMC concentration on solubility: tends to increase with increasing CMC concentrations
[1]; pH 7.5, 0% CMC
  soluble Brimonidine tartrate: 1000 ppm
[1]; pH 7.5, 0.056% CMC
  soluble Brimonidine tartrate: 1300 ppm
[1]; pH 7.5, 0.17% CMC
  soluble Brimonidine tartrate: 1300 ppm
[1]; pH 7.5, 0.5% CMC
  soluble Brimonidine tartrate: 1600 ppm
[1]; pH 7.5, 1.5% CMC
  soluble Brimonidine tartrate: about 1400 ppm
[2]; Control (treated), formulation vehicle at pH 6.3-6.5, Study 1
  Concentration of Brimonidine tartrate in control after centrifugation and filtration step: 0.484^d % w/v
[2]; Control (untreated), formulation vehicle at pH 6.3-6.5, Study 1
  Concentration of Brimonidine tartrate in control before centrifugation and filtration step: 0.486^c % w/v
[2]; Study 1, sample 1, pH 5.55, Ophthalmic Solution vehicle
  Solubility: ≦164.4^b % w/v
[2]; Study 2, sample 1, pH 5.50, Ophthalmic Solution vehicle
  Solubility: ≦200.6^b % w/v
